Experimental data: the Deep4Chem optical property database
Several values for one entry are separate records, joined by “and”; a condition that tells them apart may be missing. Equal values may be shown once.

Test: solvent given as SMILES

## c1ccc(C2(c3ccccc3)c3ccccc3N(c3ccc(-c4nc([C@]56CC7CC(C[C@@H](C7)C5)C6)nc([C@]56C[C@H]7C[C@@H](C[C@H](C7)C5)C6)n4)cc3)c3ccccc32)cc1
In Cc1ccccc1
  absorption maximum: 367.02 nm

## Cc1ccc(C(=O)OCc2ccc3c4cccc5cccc(c6cccc2c63)c54)cc1
In CCO
  absorption maximum: 438 nm

## Brc1ccc(N/C=C/C=[NH+]c2ccc(Br)cc2)cc1
In CS(C)=O
  absorption maximum: 386 nm

## C(#Cc1ccccc1)C(C#Cc1ccccc1)=Cc1ccc(C=C(C#Cc2ccccc2)C#Cc2ccccc2)s1
In ClC(Cl)Cl
  absorption maximum: 468 nm

## COc1cc2c(cc1-c1ccc(C(F)(F)F)cc1)Cc1c3c(c4c(c1-2)-c1cc(OC)c(-c2ccc(C(F)(F)F)cc2)cc1C4)C(=O)N(CCC(C)C)C3=O
In C1CCOC1
  absorption maximum: 404 nm

## CCCCCCCN1C(=CC2=C([O-])C(=Cc3sc4ccccc4[n+]3CCCCCCC)C2=C(C#N)C#N)Sc2ccccc21
In C1COCCO1
  absorption maximum: 709 nm
In CCO
  absorption maximum: 696 nm
In CN(C)C=O
  absorption maximum: 696 nm
In ClC(Cl)Cl
  absorption maximum: 704 nm

## CN(C)c1ccc(C2=Cc3ccc4ccccc4[n+]3[B-](F)(F)O2)cc1
In C1CCOC1
  absorption maximum: 472 nm
In C1COCCO1
  absorption maximum: 472 nm
In CC1CCCCC1
  absorption maximum: 473 nm
In CC#N
  absorption maximum: 468 nm
In CCOC(C)=O
  absorption maximum: 468 nm
In CCOCC
  absorption maximum: 467 nm
In CN(C)C=O
  absorption maximum: 474 nm
In CO
  absorption maximum: 468 nm
In COC(C)=O
  absorption maximum: 468 nm
In ClC(Cl)Cl
  absorption maximum: 477 nm

## Cc1ccc(-c2ccc(/C=C/c3ccc(Br)n3C)cn2)nc1
In CC#N
  absorption maximum: 373 nm

## C(/C=C/c1ccc(N(c2ccccc2)c2ccccc2)cc1)=C\c1ccncc1
In C1COCCO1
  absorption maximum: 395 nm
In CC#N
  absorption maximum: 396 nm
In CCCCCCC
  absorption maximum: 393 nm
In CO
  absorption maximum: 399 nm

## COc1ccc(-c2cc3c4c(c2)CCc2cc(-c5ccc(OC)cc5)cc(c2-4)CC3)cc1
In ClC(Cl)Cl
  absorption maximum: 332.1 nm

## CCC1=C(C)C2=Cc3cc(I)c(I)n3[B-](F)(F)[N+]2=C1C
In C1CCCCC1
  absorption maximum: 542 nm
In CC(C)=O
  absorption maximum: 524.5 nm
In CCO
  absorption maximum: 529 nm
In CCOC(C)=O
  absorption maximum: 528 nm
In CO
  absorption maximum: 526.5 nm
In OCC(F)(F)F
  absorption maximum: 520 nm

## Cc1cc(C)n2c1C=C1C(=O)N(C)C(c3ccc([N+](=O)[O-])cc3)=[N+]1[B-]2(F)F
In CCCCCC
  absorption maximum: 498 nm

## CC(C)c1cc(C(C)C)c(B2c3cc(N4c5ccccc5C(C)(C)c5ccccc54)ccc3N(c3ccccc3)c3ccc(N4c5ccccc5C(C)(C)c5ccccc54)cc32)c(C(C)C)c1
In C1CCCCC1
  absorption maximum: 374.83 nm

## c1ccc(N(c2ccccc2)c2ccc(-c3ncc(-c4ccncc4)s3)cc2)cc1
In CO
  absorption maximum: 397 nm

## [O-][n+]1c(/C=C/c2ccccc2)nc(N2CCOCC2)c2c1CCCC2
In ClCCl
  absorption maximum: 400 nm

## COc1ccc(C#Cc2c3cc4ccccc4cc3c(C#C[Si](C(C)C)(C(C)C)C(C)C)c3cc4ccccc4cc23)cc1
In ClCCl
  absorption maximum: 655 nm

## N#CC(C#N)=C(/C=C/c1cn(-c2ccccc2)nc1-c1ccccc1)c1ccccc1
In C1CCOC1
  absorption maximum: 402 nm
In C1COCCO1
  absorption maximum: 399 nm
In CCO
  absorption maximum: 402 nm
In CCOC(C)=O
  absorption maximum: 399 nm
In CN(C)C=O
  absorption maximum: 405 nm
In CO
  absorption maximum: 397 nm
In CS(C)=O
  absorption maximum: 409 nm
In Cc1ccccc1
  absorption maximum: 405 nm
In ClC(Cl)Cl
  absorption maximum: 406 nm
In ClCCl
  absorption maximum: 403 nm

## N#Cc1cnc(-c2c3ccccc3c(-c3ncc(C#N)cn3)c3ccccc23)nc1
In CCO
  absorption maximum: 391 nm
In ClCCl
  absorption maximum: 394 nm

## CCCCCCCCCCCCOc1cc2c3c(ccc4c5c(SCCCCCCCCCCCC)cc6c7c(ccc(c1c34)c75)C(=O)N(C1CCCCC1)C6=O)C(=O)N(C1CCCCC1)C2=O
In ClC(Cl)Cl
  absorption maximum: 568 nm

## F[B-]1(F)Oc2ccccc2-c2c3c(c4c([n+]21)CCc1ccccc1-4)CCc1ccccc1-3
In ClCCl
  absorption maximum: 347 nm

## c1csc(-c2ccc(-c3ccc(-c4cccs4)s3)s2)c1
In CCCCCCCCCCCCCC
  absorption maximum: 391 nm
In ClCCl
  absorption maximum: 393 nm

## COc1cc2oc(=O)c3c4ccc(N(C)C)cc4c4ccc5cccc6c(c1)c2c3c4c56
In C1CCOC1
  absorption maximum: 480 nm

## Cn1cccc1-c1cc(C#N)ccc1C#N
In C1CCOC1
  absorption maximum: 370 nm
In CC#N
  absorption maximum: 359 nm
In CCCCCC
  absorption maximum: 366 nm
In CCCCOCCCC
  absorption maximum: 370 nm
In CCOCC
  absorption maximum: 364 nm

## C(S/C=C/c1ccc(/C=C/SC=C2CCCCC2)cc1)=C1CCCCC1
In ClCCl
  absorption maximum: 350 nm

## F[B-]1(F)n2cccc2C(c2ccccc2)=C2C=CC=[N+]21
In Cc1ccccc1
  absorption maximum: 503 nm
In ClCCl
  absorption maximum: 500 nm

## CCCCN1c2ccc(/C=C/c3cc(=O)oc4cc(C)ccc34)cc2Sc2cc(/C=C/c3cc(=O)oc4cc(C)ccc34)ccc21
In ClC(Cl)Cl
  absorption maximum: 441 nm

## COc1nc(Cl)nc(Nc2ccc3c4c(cccc24)C(=O)c2ccccc2-3)n1
In CC#N
  absorption maximum: 407 nm
In CC(C)=O
  absorption maximum: 410 nm
In CC(C)O
  absorption maximum: 417.01 nm
In CCOC(C)=O
  absorption maximum: 411.02 nm
In CO
  absorption maximum: 414.94 nm
In Cc1ccccc1
  absorption maximum: 419.99 nm
In Clc1ccccc1
  absorption maximum: 418.06 nm
In N#Cc1ccccc1
  absorption maximum: 415.97 nm
In O=C1CCCCC1
  absorption maximum: 414.94 nm

## COc1cc(C(=O)O)ccc1O
In C1CCCCC1
  absorption maximum: 287.2 nm
In C1COCCO1
  absorption maximum: 290 nm
In CC#N
  absorption maximum: 290 nm
In CC(C)(C)O
  absorption maximum: 291 nm
In CC(C)CO
  absorption maximum: 292.4 nm
In CC(C)O
  absorption maximum: 291.6 nm
In CCOC(C)=O
  absorption maximum: 290.5 nm
In CO
  absorption maximum: 293.6 nm
In O
  absorption maximum: 285 nm and 283.2 nm

## Fc1nc(F)c(F)c(C#Cc2ccccc2C#Cc2c(F)c(F)nc(F)c2F)c1F
In CC#N
  absorption maximum: 300 nm

## CCCCCCN1C(=O)c2cccc3c(-c4ccc(-c5cc(-c6ccccc6)nn5-c5ccccc5)s4)ccc(c23)C1=O
In ClCCl
  absorption maximum: 388 nm

## Nc1ccc(C#Cc2ccc3ccc4ccc(C#Cc5ccc(NS(=O)(=O)c6ccc([N+](=O)[O-])cc6[N+](=O)[O-])cc5)c5ccc2c3c45)cc1
In CO
  absorption maximum: 406 nm

## O=C(c1ccncc1)c1ccc(-n2c3ccccc3c3ccccc32)cc1
In C1CCOC1
  absorption maximum: 353.15 nm
In CCCCCC
  absorption maximum: 354.95 nm
In Cc1ccccc1
  absorption maximum: 359 nm
In ClCCl
  absorption maximum: 359.23 nm

## O=C([O-])c1ccc(C2=c3cc4c5c(c3Oc3c2cc2c6c3CCCN6CCC2)CCC[N+]=5CCC4)c(C(=O)[O-])c1
In CCO
  absorption maximum: 573 nm
In O
  absorption maximum: 574 nm

## CN(C)c1ccc(-c2cc(-c3ccc(N(C)C)cc3)ncn2)cc1
In ClCCl
  absorption maximum: 378 nm

## Cc1ccc(C2=Nc3cccc4[n+]3[B-](F)(O2)OC(c2ccc(C)cc2)=N4)cc1
In ClCCl
  absorption maximum: 394 nm

## CN(C)c1ccc(/C=C/c2nc3ccccc3o2)cc1
In C1CCCCC1
  absorption maximum: 380 nm
In CO
  absorption maximum: 390 nm

## c1ccc2c(c1)nc1ccccn12
In CC#N
  absorption maximum: 344 nm

## C1=[N+](c2ccccc2)[B-](c2ccccc2)(c2ccccc2)Oc2c1ccc1c3c(ccc21)C=[N+](c1ccccc1)[B-](c1ccccc1)(c1ccccc1)O3
In Cc1ccccc1
  absorption maximum: 536 nm
In ClCCl
  absorption maximum: 529 nm

## COc1ccc(-c2nc3c(ccc4ccccc43)oc2=O)cc1
In c1ccccc1
  absorption maximum: 410 nm

## Cc1nc2cccc(-c3nc4ccccc4o3)c2c(=O)[nH]1
In CN(C)C=O
  absorption maximum: 310 nm

## N#Cc1c(N2CCCCC2)cc(-c2ccc3ccc4cccc5ccc2c3c45)c2c1-c1ccccc1C2
In C1CCOC1
  absorption maximum: 346 nm

## Cc1cc(=O)oc2cc3cc(-c4cn(Cc5ccccc5)nn4)ccc3cc12
In CCO
  absorption maximum: 339 nm

## ClP1(Cl)=NP(Cl)(Cl)=NP(Cl)(Oc2ccc3ccc4cccc5ccc2c3c45)=N1 (stereo unspecified)
In ClCCl
  absorption maximum: 343 nm

## Cc1cc(O)c(C(=O)/C=C/c2ccccc2Cl)c(=O)o1
In CC#N
  absorption maximum: 353 nm
In ClCCl
  absorption maximum: 355 nm

## CC(=O)Nc1ccc(S(=O)(=O)O)c(/N=N/c2c(O)c3ccccc3n(C)c2=O)c1
In C1CCOC1
  absorption maximum: 435 nm
In CC(C)=O
  absorption maximum: 425 nm
In CCOC(C)=O
  absorption maximum: 434 nm
In CO
  absorption maximum: 423 nm
In CS(C)=O
  absorption maximum: 428 nm
In Cc1ccccc1
  absorption maximum: 437 nm
In ClCCl
  absorption maximum: 435 nm
In O
  absorption maximum: 417 nm

## CC(=O)Nc1cc2ccc3cccc4ccc(c1)c2c34
In CC#N
  absorption maximum: 334 nm
In CCCCOCCCC
  absorption maximum: 336 nm
In CO
  absorption maximum: 334 nm

## Cc1nn(-c2ccccc2)c2c1c(=O)oc1ccc(-n3c4ccccc4c4cc(-n5c6ccccc6c6ccccc65)ccc43)cc12
In Cc1ccccc1
  absorption maximum: 342 nm

## COc1ccccc1C1=NC2c3cccc4cccc(c34)C2N1c1ccccc1 (stereo unspecified)
In Cc1ccccc1
  absorption maximum: 312 nm

## C(S/C=C/c1ccc(/C=C/SC=C(c2ccccc2)c2ccccc2)cc1)=C(c1ccccc1)c1ccccc1
In ClCCl
  absorption maximum: 366 nm

## CCNc1ccc2c(c1)C(C)(C)C(=O)C=C2
In O
  absorption maximum: 402 nm

## N#Cc1nn(-c2ccccc2)nc1N1CCCC1
In CC#N
  absorption maximum: 340 nm

## Cc1ccsc1-c1ccc(-c2ccc(-c3sccc3C)s2)s1
In CCCCCCCCCCCCCC
  absorption maximum: 382 nm

## Brc1ccc(-c2pc3ccccc3s2)cc1 (stereo unspecified)
In CC#N
  absorption maximum: 337 nm

## Cc1nc(-c2cc(C(F)(F)F)ccc2O)n2c1CCCC2
In ClCCl
  absorption maximum: 316 nm

## F[B-]1(F)OC(C#Cc2ccccc2)=C2CCc3ccccc3C2=[O+]1
In ClCCl
  absorption maximum: 431 nm

## CC1=CC2=Nc3nc(C)[n+](C)cc3CN2C=C1
In CC#N
  absorption maximum: 403 nm
In CCO
  absorption maximum: 398 nm
In O
  absorption maximum: 392 nm

## Nc1nc2c([nH]c(=O)n2[C@H]2C[C@H](O)[C@@H](CO)O2)c(=O)[nH]1
In O
  absorption maximum: 294.99 nm

## Cc1ccc2[nH]c(-c3ccc(-c4ccc(-c5ccc(-c6nc7cc(C)ccc7[nH]6)cc5)c(C)c4)cc3)nc2c1
In CN(C)C=O
  absorption maximum: 333 nm

## COc1ccc(-c2cc3c(ccc4sc5ccc6sccc6c5c43)s2)cc1
In ClCCl
  absorption maximum: 357 nm

## CC1(C)c2ccccc2N(c2ccc(-c3ccc(C#N)cc3)cc2)c2ccccc21
In Cc1ccccc1
  absorption maximum: 358 nm

## FC(F)(F)c1ccc(C2=Cc3ccccc3[Si]2(c2ccccc2)c2ccccc2)cc1
In ClCCl
  absorption maximum: 336 nm
